Source: publication PMC4273293 (2014)

Legend:
[1] = test system: Fa2T (DNA, G4) ACAGGGGTGTGGGGACAGGGGTGTGGGG; assay: FRET melting; settings: K+ 10 mM, Li+ 90 mM, Na+ 10 mM; cacodylate buffer, pH 7.2; DNA 0.2 µM; ligand–DNA ratio 5.0
[2] = test system: 22AG (DNA, G4) AGGGTTAGGGTTAGGGTTAGGG; assay: fluorimetric titration; settings: K+ 95 mM; 20 °C; DNA concentration in oligonucleotide
[3] = test system: ILPR-DNA a2 (DNA, G4) ACAGGGGTGTGGGGACAGGGGTGTGGGG; assay: fluorimetric titration; settings: K+ 95 mM, potassium phosphate buffer, pH 7.0, 20 °C, DNA concentration in nucleotide bases, per base
[4] = test system: 22AG (DNA, G4) AGGGTTAGGGTTAGGGTTAGGG; assay: CD spectroscopy (induced CD)

| ΔTm [1] [°C] | Kb^22AG [2] [M⁻¹] | Kb^a2 [3] [M⁻¹] | binding [4] | Kb^a2 ([3]; site 1 of 2) [M⁻¹] | Structure (SMILES) |
| --- | --- | --- | --- | --- | --- |
| 3.5 ± 0.5 | 200000 | 200000 |  |  | CN1C=CC(=CC=C(C=Cc2cc[n+](C)c3ccccc23)C=Cc2cc[n+](C)c3ccccc23)c2ccccc21 |
| 14.9 ± 0.5 |  | 2.4e+06 |  |  | C[n+]1cc(NC(=O)c2cccc(C(=O)Nc3cc4ccccc4[n+](C)c3)n2)cc2ccccc21 |
| 5.8 ± 0.5 |  | 3.5e+06 |  |  | c1cc[n+]2cc3c(cc2c1)c1cc2cccc[n+]2cc1c1c2c[n+]4ccccc4cc2c2cc4cccc[n+]4cc2c31 |

Continued, molecule first:

| Structure (SMILES) | ΔTm [1] [°C] | Kb^22AG [2] [M⁻¹] | Kb^a2 [3] [M⁻¹] | binding [4] | Kb^a2 ([3]; site 1 of 2) [M⁻¹] |
| --- | --- | --- | --- | --- | --- |
| COc1cc2cc3c4cc(OC)c(OC)cc4cc[n+]3c(C)c2cc1OC | 3.1 ± 0.5 |  | 2.5e+06 |  |  |
| CN1C(=Cc2cc[n+](C)c3ccccc23)Sc2ccccc21 | 1.8 ± 0.5 |  | 300000 | yes |  |
| CN1C(=CC=C(C=Cc2ccc3ccccc3[n+]2C)C=Cc2ccc3ccccc3[n+]2C)C=Cc2ccccc21 | 14.5 ± 0.5 | 200000 | 2.7e+06 |  |  |
| CN1C(=CC=C(C=CC2=[N+](C)c3ccccc3C2(C)C)C=CC2=[N+](C)c3ccccc3C2(C)C)C=Cc2ccccc21 | 3.4 ± 0.5 | 390000 |  |  | 1.7e+07 |
| C[n+]1ccc(-c2c3nc(c(-c4cc[n+](C)cc4)c4ccc([nH]4)c(-c4cc[n+](C)cc4)c4nc(c(-c5cc[n+](C)cc5)c5ccc2[nH]5)C=C4)C=C3)cc1 | 6.3 ± 0.5 |  | 2.2e+06 |  |  |
| CN1C(=CC=C(C=Cc2ccc3ccccc3[n+]2C)C=Cc2ccc3ccccc3[n+]2C)C(C)(C)c2ccccc21 | 3.7 ± 0.5 | 900000 |  |  | 5.5e+06 |
| CN1C(=CC=C(C=Cc2sc3ccccc3[n+]2C)C=Cc2sc3ccccc3[n+]2C)Sc2ccccc21 | 4.9 ± 0.5 |  | 1.2e+06 |  |  |
